Assay results as given in patent US8952024B2, “Herbicidal pyrimidone derivatives” (E I du Pont de Nemours and Company, priority 2009, dated 2015).

Columns and labels:
Experiment in all cases: Test B pre-/postemergence plant response
Format in all cases: in vivo
[1] = test system: Italian ryegrass (Lolium multiflorum)
How it was run: (§1)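 Plants treated either at seeding (loam/sand soil) or postemergence at 2 to 18 cm height, using a surfactant-containing non-phytotoxic solvent formulation. Evaluation was visual after 13 to 15 days, 0 to 100 scale relative to controls.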

[2] = test system: Surinam grass (Brachiaria decumbens)
How it was run: as §1

corn (Zea mays) = test system: corn (Zea mays)
How it was run: as §1

[3] = test system: galium (catchweed bedstraw, Galium aparine); conditions: Preemergence
How it was run: as §1

[4] = test system: goosegrass (Eleusine indica)
How it was run: as §1

[5] = test system: lambsquarters (Chenopodium album)
How it was run: as §1

[6] = test system: large crabgrass (Digitaria sanguinalis)
How it was run: as §1

[7] = test system: nightshade (eastern black nightshade, Solanum ptycanthum); conditions: Preemergence
How it was run: as §1

[8] = test system: pigweed (Amaranthus retroflexus)
How it was run: as §1

[9] = test system: sunflower (common oilseed sunflower, Helianthus annuus); conditions: Preemergence
How it was run: as §1

[10] = test system: woolly cupgrass (Eriochloa villosa)
How it was run: as §1

[11] = 31 g ai/ha, postemergence, scale 0 to 100, 0 is no effect, 100 is complete control
[12] = Postemergence, 62 g ai/ha, scale 0 (no effect) to 100 (complete control), 13 to 15 days
[13] = Postemergence, 125 g ai/ha, visual rating after 13 to 15 days, scale 0 (no effect) to 100 (complete control)
[14] = Postemergence, 250 g ai/ha, scale 0 to 100 (0 no effect, 100 complete control)
[15] = Preemergence, 31 g ai/ha, scale 0 to 100 (0 no effect, 100 complete control)
[16] = Preemergence, 62 g ai/ha, scale 0 to 100, 0 no effect, 100 complete control
[17] = Preemergence, 125 g ai/ha, scale 0 to 100, 0 no effect, 100 complete control
[18] = 250 g ai/ha, Preemergence, 0 to 100 scale
[19] = 31 g ai/ha, scale 0 to 100 (0 no effect, 100 complete control)
[20] = 62 g ai/ha, scale 0 to 100, 0 no effect, 100 complete control
[21] = 125 g ai/ha, scale 0 to 100, 0 no effect, 100 complete control

O=C1CCCC(O)=C1C(=O)c1cnc(-c2cccs2)n(-c2ccccc2)c1=O [Compound 66]
50: Plant response rating, Crabgrass, Large [6, 11]
25: Plant response rating, Corn (corn (Zea mays); [11]) | Plant response rating, Cupgrass, Woolly [10, 15]
10: Plant response rating, Ryegrass, Italian [1, 14]
5: Plant response rating, Ryegrass, Italian [1, 13]
65: Plant response rating, Surinam Grass [2, 11] | Plant response rating, Goosegrass [4, 11] | Plant response rating, Goosegrass [4, 12] | Plant response rating, Crabgrass, Large [6, 13]
55: Plant response rating, Corn (corn (Zea mays); [12]) | Plant response rating, Crabgrass, Large [6, 12]
60: Plant response rating, Cupgrass, Woolly [10, 13] | Plant response rating, Cupgrass, Woolly [10, 17]
85: Plant response rating, Surinam Grass [2, 13] | Plant response rating, Crabgrass, Large [6, 16]
0: Plant response rating, Ryegrass, Italian [1, 11] | Plant response rating, Ryegrass, Italian [1, 12] | Plant response rating, Ryegrass, Italian [1, 15] | Plant response rating, Ryegrass, Italian [1, 16] | Plant response rating, Ryegrass, Italian [1, 17] | Plant response rating, Corn (corn (Zea mays); [18]) | Plant response rating, Corn (corn (Zea mays); [15]) | Plant response rating, Corn (corn (Zea mays); [16]) | Plant response rating, Corn (corn (Zea mays); [17]) | Plant response rating, Galium ([3]; 250 g ai/ha, 0 to 100 scale) | Plant response rating, Galium [3, 19] | Plant response rating, Galium [3, 20] | Plant response rating, Galium [3, 21] | Plant response rating, Sunflower [9, 19] | Plant response rating, Sunflower [9, 20] | Plant response rating, Sunflower [9, 21]
35: Plant response rating, Surinam Grass [2, 15] | Plant response rating, Goosegrass [4, 15]
95: Plant response rating, Goosegrass [4, 14] | Plant response rating, Lambsquarters [5, 11] | Plant response rating, Lambsquarters [5, 12] | Plant response rating, Lambsquarters [5, 13] | Plant response rating, Crabgrass, Large [6, 17] | Plant response rating, Nightshade [7, 20]
90: Plant response rating, Surinam Grass [2, 17] | Plant response rating, Goosegrass [4, 17]
100: Plant response rating, Lambsquarters [5, 18] | Plant response rating, Lambsquarters [5, 14] | Plant response rating, Crabgrass, Large [6, 18] | Plant response rating, Pigweed [8, 13] | Plant response rating, Pigweed [8, 14]
98: Plant response rating, Surinam Grass [2, 14] | Plant response rating, Goosegrass [4, 18] | Plant response rating, Lambsquarters [5, 15] | Plant response rating, Lambsquarters [5, 16] | Plant response rating, Lambsquarters [5, 17] | Plant response rating, Nightshade [7, 21] | Plant response rating, Pigweed [8, 11] | Plant response rating, Pigweed [8, 12] | Plant response rating, Pigweed [8, 15] | Plant response rating, Pigweed [8, 16] | Plant response rating, Pigweed [8, 17]
80: Plant response rating, Surinam Grass [2, 16] | Plant response rating, Nightshade [7, 19]
75: Plant response rating, Corn (corn (Zea mays); [14]) | Plant response rating, Goosegrass [4, 16] | Plant response rating, Cupgrass, Woolly [10, 18] | Plant response rating, Cupgrass, Woolly [10, 14]
70: Plant response rating, Surinam Grass [2, 12] | Plant response rating, Corn (corn (Zea mays); [13]) | Plant response rating, Goosegrass [4, 13] | Plant response rating, Crabgrass, Large [6, 14] | Plant response rating, Crabgrass, Large [6, 15]
40: Plant response rating, Cupgrass, Woolly [10, 11] | Plant response rating, Cupgrass, Woolly [10, 12] | Plant response rating, Cupgrass, Woolly [10, 16]
